# Reference: patent US20100093642A1, “NOVEL POLYPEPTIDES” (priority 2006, published 2010)
# Read-outs that look alike come from different tables or passages of the source. Residues, ends and D or L forms follow the SMILES beside them. No end group written: not given here.
# Experiments:
# Pseudomonas aeruginosa = assay type: cell-based
# Procedure, shortened: (§1)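 Peptide fractions were incubated with actively growing bacteria in Mueller Hinton medium at a starting concentration of 3×10^4 cells per ml. Growth was monitored continuously in a Bioscreen C reader; polymyxin B served as reference.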
# S. aureus (ATCC 9144) = assay type: cell-based, Staphylococcus aureus
# Procedure, shortened: as §1
# Botrytis cinerea 101 = conditions: 48 h
# Procedure, shortened: (§2)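 Broth microdilution in half-strength potato dextrose broth, final 2×10^5 spores per ml, peptides in two-fold dilutions from 50 μM to 0.1 μM final. Incubated in the dark without shaking at 25° C. (37° C. for C. albicans) for 48 h; MIC is lowest concentration giving 50% inhibition of visible growth, scored microscopically.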
# [1] = tested on: Candida albicans (ATCC 10231)
# Procedure, shortened: as §2
# Saccharomyces cerevisiae = conditions: 48 h
# Procedure, shortened: as §2
# Fusarium sp. = test: Antifungal MIC; assay type: cell-based; conditions: filamentous fungi; more than 50% inhibition of visible growth, 48 h
# Protocol: (§3) The various derivates of P17 (brominated and non-brominated) were tested for their ability to inhibit fungal growth of the yeast strains Saccaharomyces cerevisiae sp, Candida albicans (ATCC 10231) and Rodotorula sp., and the filamentous strains Botrytis cinerea 101, Penicillium rogveforti, and Fusarium sp. All strains, except C. albicans, were a gift from Prof. A. Tronsmo (The Norwegian University of Life Sciences, Ås, Norway). The fungi were cultivated on potato dextrose agar, supplemented with 2% glucose, at room temperature. Before antifungal testing, the fungi were dissolved in potato dextrose broth (Difco) at half-strength. Cell concentration was determined and adjusted after counting in a Bürker chamber. The filamentous fungi were filtered through a piece of cotton before counting. An aliquot of 50 μl of fungal spores (final concentration 2×10^5 spores per ml) were inoculated in microtiter plates (96 wells) along with 50 μl peptide solution. Peptides, dissolved in distilled water, were tested at final concentrations (two-fold dilutions) ranging from 50 μM to 0.1 μM. Cultures were grown in the dark (without shaking) and with a moist chamber at 25° C. (37° C. for C. albicans). Growth inhibition was determined microscopically after 48 h of incubation. MIC was determined as the lowest concentration of peptide resulting in 50% inhibition of visible growth.
# Penicillum rogveforti = test: Antifungal MIC; assay type: cell-based; conditions: filamentous fungi; more than 50% inhibition of visible growth, 48 h
# Protocol: as §3
# [2] = tested on: human breast malignant carcinoma cell line MCF-7; assay type: cell-based; conditions: human, 24 h
# Protocol: (§4) The cytotoxic effects of the peptides on different human tumour cells were measured using the MTT colorimetric assay (Mosmann, 1983). […] Dissolved MIT is converted to an insoluble purple formazan by cleavage of the tetrazolium ring by dehydrogenase enzymes. This water insoluble formazan can be solubilized using isopropanol or other solvents and the dissolved material is measured spectrophotometrically. The absorbance was measured as a function of concentration of converted dye. The conversion of the soluble dye to the insoluble purple formazan is utilized in assays for measurement of cell proliferation. […] We used this assay to measure the degree of cell death caused by the peptides. MCF-7 was maintained in EMEM, A2058 in DMEM and […]-29 in RPMI-1640 medium supplemented with 10% heat inactivated […] and 1% L-glutamine-L-alanine in a humidified atmosphere of 5% CO2 at 37° C. The human embryonic fibroblast cell line, MRC-5 (which is normal fibroblasts), was cultured as a monolayer in MEM medium, under the same conditions as described for the tumour cell lines. Cells to be used in the assay were grown to a minimum of 75% confluency, trypsinated and split to single cell suspension, counted and centrifuged at 1500 rpm for 10 min. The cell pellet was resuspended to a concentration of 2×10^5 cells/ml (HT-29) or 1×10^5 (MRC-5, MCF7 and A2058) in DMEM without FBS and L-glutamine-L-alanine (assay-medium). All cell lines were routinely tested for mycoplasma infection using a PCR-based mycoplasma detection kit (MycoSensor PCR Assay Kit, Stratagene), following the supplier's instructions. All cell lines were mycoplasma free. The cytotoxicity was measured using the MTT method (Mosmann, 1983), with minor modifications. Different human tumour cells (1-2×10^5) were applied in 96-well culture plates in a volume of 100 μl DMEM medium and incubated at 37° C. for 24 hours. The medium was removed and the cells were treated with 100 μl of peptide solution (concentrations ranging from 0 to 200 μg/ml), diluted in a) RPMI-1640 medium supplemented with 5% heat inactivated FBS, or b) RPMI-1640 medium without FBS. The plates were incubated at 37° C. for 24 hours. Cells treated with Triton X-100 (1%) was used as positive control (100% killing) whereas cells plus medium only were used as negative control. […] A volume of 70 μl of the supernatant was then removed and […] (0.04 M HCl in isopropanol) added to each well. The plate was placed on a shaker for 1 hour at room temperature and read spectrophotometrically at 590 nm in a microtiter plate reader (DTX880 Multimode Detector, Beckman Coulter).
# [3] = tested on: human skin malignant melanoma cell line A2058; assay type: cell-based; conditions: human, 24 h
# Protocol: as §4
# [4] = yeast, more than 50% inhibition of visible growth, 48 h, 37° C.
# [5] = yeast, more than 50% inhibition of visible growth
Compound,"Minimal inhibitory concentration, P. aeruginosa (Pseudomonas aeruginosa)","Minimal inhibitory concentration, S. aureus (S. aureus (ATCC 9144); ATCC 9144)","Minimal inhibitory concentration (MIC), Botrytis cinerea (Botrytis cinerea 101)","Minimal inhibitory concentration (MIC), Candida albicans ([1]; ATCC 10231, 48 h)","Minimal inhibitory concentration (MIC), Saccharomyces cerevisiae (Saccharomyces cerevisiae)","Minimal inhibitory concentration, S. aureus (S. aureus (ATCC 9144); 37° C.)","Minimal inhibitory concentration (MIC), Candida albicans [1, 4]","Minimal inhibitory concentration (MIC), Saccharomyces cerevisiae (Saccharomyces cerevisiae; [5])","Minimal inhibitory concentration (MIC), Fusarium sp. (Fusarium sp.)","Minimal inhibitory concentration (MIC), Penicillum rogveforti (Penicillum rogveforti)",IC50 [2],IC50 [3]
CC[C@H](C)[C@H](NC(=O)CNC(=O)[C@H](CO)NC(=O)[C@H](CCCCN)NC(=O)[C@@H](NC(=O)[C@H](C)NC(=O)[C@H](Cc1c[nH]cn1)NC(=O)[C@H](CO)NC(=O)[C@@H](NC(=O)[C@H](CCCCN)NC(=O)[C@H](Cc1c[nH]cn1)NC(=O)[C@H](Cc1ccccc1)NC(=O)[C@@H](NC(=O)[C@H](CCCCN)NC(=O)[C@H](CCCCN)NC(=O)[C@H](Cc1ccccc1)NC(=O)C(Cc1c[nH]c2ccc(Br)cc12)NC(=O)CN)[C@@H](C)O)C(C)C)C(C)C)C(=O)N[C@@H](Cc1c[nH]cn1)C(=O)N[C@@H](C)C(=O)O (stereo partly shown) [P17 HC-Br (1-20)] (HELM PEPTIDE1{G.[O=C(C(Cc1c[nH]c2ccc(Br)cc12)N[*:1])[*:2]].F.K.K.T.F.H.K.V.S.H.A.V.K.S.G.I.H.A}$$$$V2.0; N-terminus and C-terminus assumed),6.25 µM,100 µM,50 µM,6.25 µM,12.5 µM,–,–,–,–,–,–,–
CC[C@H](C)[C@H](NC(=O)CNC(=O)[C@H](CO)NC(=O)[C@H](CCCCN)NC(=O)[C@@H](NC(=O)[C@H](C)NC(=O)[C@H](Cc1c[nH]cn1)NC(=O)[C@H](CO)NC(=O)[C@@H](NC(=O)[C@H](CCCCN)NC(=O)[C@H](Cc1c[nH]cn1)NC(=O)[C@H](Cc1ccccc1)NC(=O)[C@@H](NC(=O)[C@H](CCCCN)NC(=O)[C@H](CCCCN)NC(=O)[C@H](Cc1ccccc1)NC(=O)C(Cc1c[nH]c2ccc(Br)cc12)NC(=O)CN)[C@@H](C)O)C(C)C)C(C)C)C(=O)N[C@@H](Cc1c[nH]cn1)C(=O)N[C@@H](C)C(=O)NCC(=O)N[C@@H](CCC(N)=O)C(=O)N[C@@H](CCCNC(=N)N)C(=O)NCC(=O)N[C@@H](CS)C(=O)N[C@@H](CO)C(=O)N[C@@H](C)C(=O)N[C@@H](CC(C)C)C(=O)NCC(=O)N[C@@H](Cc1ccccc1)C(=O)O (stereo partly shown) [P17 HC-Br] (HELM PEPTIDE1{G.[O=C(C(Cc1c[nH]c2ccc(Br)cc12)N[*:1])[*:2]].F.K.K.T.F.H.K.V.S.H.A.V.K.S.G.I.H.A.G.Q.R.G.C.S.A.L.G.F}$$$$V2.0),3.12 µM,1.56 µM,25 µM,–,–,6.25 µM,6.25 µM,6.25 µM,1.56 µM,6.25 µM,< 10 µM,< 10 µM
GWFKKTFHKVSHAVKSGIHA [P17 HC (1-20)],6.25 µM,100 µM,100 µM,6.25 µM,12.5 µM,–,–,–,–,–,–,–
GWFKKTFHKVSHAVKSGIHAGQRGCSALGF [P17 HC],3.12 µM,–,50 µM,–,–,–,6.25 µM,6.25 µM,1.56 µM,6.25 µM,< 10 µM,< 10 µM
